What all share (assay type): cell-based
One test concerns SW480 Hoechst SP cells. The test can be described thus: MTT cell viability, SW480 Hoechst side population CSCs. The following applies: FIG. 8B. How it is done:
To identify and isolate side population (SP) and non-SP fractions, SW480 cells were removed from the culture dish with trypsin and EDTA, pelleted by centrifugation, washed with phosphate-buffered saline (PBS), and resuspended at 37° C. in Dulbecco's modified Eagle's medium (DMEM) containing 2% FBS and 1 mM HEPES. The cells were then labeled with Hoechst 33342 (Invitrogen) at a concentration of 5 μg/mL. The labeled cells were incubated for 120 minutes at 37° C., either alone or with 50 μM verapamil (Sigma-Aldrich, St. Louis). After staining, the cells were suspended in Hanks' balanced saline solution (HBSS; Invitrogen) containing 2% FBS and 1 mM HEPES, passed a through 40 μm mesh filter, and maintained at 4° C. until flow cytometry analysis. The Hoechst dye was excited at 350 nm, and its fluorescence was measured at two wavelengths using a 450 DF10 (450/20 nm band-pass filter) and a 675LP (675 nm long-pass edge filter) optical filter. The gating on forward and side scatter was not stringent, and only debris was excluded,
For 3-(4,5 dimethylthiazol-2-yl)-2,5-diphenyltetrazolium (MTT) (Sigma-Aldrich, St. Louis, Mo.) analysis, cells were plated in 96 well plates at 10,000 cells per well. 24 hours after plating, compound was added to cells at indicated doses. 22 hours following compound addition, MTT was added to each well (0.5 mg/ml, final concentration) and plates were incubated for an additional 2 hours at 37° C. Medium was then aspirated and the formazan product was solubilized in 100 μl of isopropyl alcohol. The absorbance of each well was measured at 570 nm using a microplate reader.
The IC50 of compound 401 against the Hoechst side population was accessed in MTT assays and was compared to the IC50 against the non-side population.
In addition, we tested the activities of several other compounds against cancer stem cells. Briefly, freshly isolated CSCs (SW480 Hoechst SP cells or CD44^high FaDu cells) were exposed to a dose range (30-0.117 μM) of compound for 48 h before examining cell viability by MTT assay. IC50s were estimated by plotting the percentage of surviving cells. As shown in Table 4 and Table 5, compounds of present invention can target cancer stem cells.

In the next test the test system is CD34^+ BM Erythroid. The test can be described thus: Colony formation assay, CD34+ bone marrow erythroid lineage. From the text: In a similar fashion to PMBCs, CD34^+ bone marrow hematopoietic stem cells were spared when treated with compound 401.
In a further test the test system is HT29 colon cancer cells. The test can be described thus: Colony formation assay, HT29. The following applies: Homo sapiens, HT-29, similar conditions.
The test system of the next test is CD133^+ cells. The experiment in a line: Cleaved-Caspase 3 staining of CD133+ cells. The following applies: FIG. 9B. The source says:
Sorting tumor cells based primarily upon the differential expression of the surface marker(s), such as CD44 or CD133, have accounted for the majority of the highly tumorigenic CSCs described to date. CD133 isolation is based upon the method of Ricci-Vitiani et al., with slight modification. CD133^+ cells were isolated by either fluorescence activated cell sorting (FACS) or magnetic nanoparticle-based separation. Briefly, […] were labeled with CD133/1 (AC133)-PE for FACS-based cell sorting; or with CD133/1 (AC133)-biotin (Miltenyi Biotec, Auburn, Calif.) for magnetic field-based separation using the EasySep® biotin selection kit (Miltenyi Biotec) according to the manufacturer's recommendations. Non-specific labeling was blocked with the supplied FcR blocking reagent and antibody incubations (1:11) were carried out on ice for 15 minutes in PBS with 2% FBS and 1 mM EDTA. Five washes were done for EasySep® isolation, whereas cells were pelleted at 400×g for 5 minutes and resuspended at 2×10^7/mL, before sorting by FACS.
Cells treated with indicated compound for an indicated time were either fixed in 4% formaldehyde or cold methanol for the detection of Annexin V, cleaved caspase 3, or stat3, respectively. Coverslips were air dried and rehydrated in PBS at room temperature for 10 min. […]

A word on the IC50: it is the concentration that gives 50% inhibition. Read a high IC50 as lower potency.

Turning to `CC(=O)c1cc2c(o1)C(=O)c1ccccc1C2=O` [Compound 401, 2-acetylnaphtho[2,3-b]furan-4,9-dione], the “sensitivity of side population compared to non-side population” value with SW480 Hoechst SP cells was “the side population is as sensitive as the non-side population”. Moreover, the therapeutic window result in the test on CD34^+ BM Erythroid (CD34+ bone marrow cells vs DU145 and HT29, in vitro) is “greater than 50 fold”. Also, the IC50 in the test with CD34^+ BM Erythroid (normal cells, 6 hours incubation, colony formation) is more than 30 µM; in the test with HT29 colon cancer cells, less than 0.5 µM. Also, the “cleaved-Caspase 3 staining” value with CD133^+ cells is recorded as “many of the CD133^+ cells become cleaved-Caspase 3 positive”.

Values taken from patent publication US20210024482A1, “Novel Group of STAT3 Pathway Inhibitors and Cancer Stem Cell Pathway Inhibitors” (Sumitomo Dainippon Pharma Oncology, Inc., priority 2007, published 2021).
